# Patent US10344019B2 (priority 2010, dated 2019)
# Read-outs that look alike come from different tables or passages of the source.
# How the values were obtained:
# Assay type in all cases: cell-based
# [1] = system: HCV 2a Rluc cells (NS5A chimeric genotype 2a JFH-1 replicon with genotype 2a J6 strain NS5A gene, M31 present); assay: HCV replicon reporter assay, genotype 2a J6 (M31 present); details: Hepatitis C virus, read-out: 2a J6
# Method in brief: (§1)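 Replicon cells stably carrying the listed RLuc-encoding dicistronic replicons were seeded and treated with DMSO serial dilutions of compound (10 mM stocks) diluted into culture medium. After 72 h, cells were lysed and Renilla luciferase activity measured. EC50 was derived by non-linear regression.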
# [2] = system: HCV 4a Rluc cells (NS5A chimeric genotype 1b Con1 replicon with genotype 4a NS5A gene); assay: microbe, parasite or virus in culture; details: Hepatitis C virus, read-out: 4a
# Method in brief: as §1
# [3] = system: HCV 2a JFH-1 Rluc cells (dicistronic genotype 2a JFH-1 replicon, RLuc reporter); assay: microbe, parasite or virus in culture; details: Hepatitis C virus, read-out: 2a JFH
# Method in brief: as §1
# [4] = system: HCV 1b RLuc cells (dicistronic genotype 1b Con1 replicon, RLuc reporter); assay: microbe, parasite or virus in culture; details: Hepatitis C virus, read-out: 1b (nM)
# Method in brief: as §1
# [5] = system: HCV 3a RLuc cells (NS5A chimeric genotype 1b Con1 replicon with consensus genotype 3a NS5A gene); assay: microbe, parasite or virus in culture; details: Hepatitis C virus
# Method in brief: as §1
# [6] = system: HCV 2b Rluc cells (NS5A chimeric genotype 2a JFH-1 replicon with genotype 2b MD2b-1 NS5A gene, M31 present); assay: microbe, parasite or virus in culture; details: Hepatitis C virus, read-out: 2b
# Method in brief: as §1
# [7] = system: HCV 1a RLuc cells (dicistronic genotype 1a H77 replicon, RLuc reporter); assay: microbe, parasite or virus in culture; details: Hepatitis C virus, read-out: 1a
# Method in brief: as §1
# [8] = system: Q30R in genotype 1a NS5A, 1a Rluc replicon transfected into Huh-7 cured-51 cells; assay: HCV replicon assay, resistance mutant 1a Q30R; details: Hepatitis C virus, Huh-7, read-out: 1a Q30R
# Method in brief: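 Q30R introduced into genotype 1a H77 RLuc replicon by site-directed mutagenesis; replicon RNA transfected into Huh-7 cured-51 cells.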
# [9] = genotype 2a JFH-1 RLuc replicon
# [10] = read-out: 3a, genotype 3a NS5A chimeric replicon
# [11] = read-out: 3a, genotype 3a replicon
# [12] = 72 h, Table 1, genotype 2a JFH-1 replicon, 72 hours
# [13] = read-out: 3a, Table 1, genotype 3a NS5A chimeric replicon
# [14] = 72 h, Table 1, genotype 1a H77 replicon, 72 hours
SMILES,EC50 [1],EC50 [2],"EC50 [3, 9]",EC50 [4],"EC50 [5, 10]",EC50 [6],EC50 ([7]; genotype 1a H77 RLuc replicon),EC50 [8],EC50 ([3]; genotype 2a JFH-1 replicon),"EC50 [5, 11]",EC50 ([7]; genotype 1a replicon),"EC50 [3, 12]",EC50 ([4]; 72 h),"EC50 [5, 13]","EC50 [7, 14]"
COC[C@H]1C[C@@H](c2nc3ccc4cc(-c5ccc6c(ccc7nc([C@@H]8C[C@H]9C[C@H]9N8C(=O)[C@@H](NC(=O)OC)C(C)C)[nH]c76)c5)ccc4c3[nH]2)N(C(=O)[C@H](NC(=O)C2CC2)c2ccccc2)C1 [Example 502],0.001 to 0.999 nM,0.001 to 0.99 nM,0.001 to 0.999 nM,0.016 nM,0.001 to 0.99 nM,0.001 to 0.999 nM,0.001 to 0.999 nM,0.001 to 0.999 nM,–,–,–,–,–,–,–
COC[C@H]1C[C@@H](c2nc3ccc4cc(-c5ccc(-c6cnc([C@@H]7CCCN7C(=O)[C@@H](NC(=O)OC)C(C)C)[nH]6)cc5OC(F)F)ccc4c3[nH]2)N(C(=O)[C@H](NC(=O)OC)c2ccccc2)C1 [Example 567],0.001 to 0.999 nM,0.001 to 0.99 nM,0.001 to 0.999 nM,0.007 nM,0.001 to 0.99 nM,0.001 to 0.999 nM,0.001 to 0.999 nM,0.001 to 0.999 nM,–,–,–,–,–,–,–
CC#Cc1cc2nc([C@@H]3CCCN3C(=O)[C@@H](NC(=O)OC)C(C)C)[nH]c2c2ccc(-c3ccc4c(ccc5nc([C@@H]6C[C@H](COC)CN6C(=O)[C@H](NC(=O)OC)c6ccccc6)[nH]c54)c3)cc12 [Example 581],0.001 to 0.999 nM,0.001 to 0.99 nM,0.001 to 0.999 nM,0.007 nM,0.001 to 0.99 nM,0.001 to 0.999 nM,0.001 to 0.999 nM,0.001 to 0.999 nM,–,–,–,–,–,–,–
COC[C@H]1C[C@@H](c2nc3ccc4cc(-c5ccc(-c6cnc([C@@H]7CCCN7C(=O)[C@@H](NC(=O)OC)C(C)C)[nH]6)cc5)ccc4c3[nH]2)N(C(=O)[C@H](NC(=O)C2CC2)c2ccccc2)C1 [Example 475],0.001 to 0.999 nM,0.001 to 0.99 nM,–,0.019 nM,–,0.001 to 0.999 nM,–,0.001 to 0.999 nM,0.001 to 0.999 nM,0.001 to 0.99 nM,0.001 to 0.999 nM,–,–,–,–
COC(=O)N[C@H](C(=O)N1CCC[C@H]1c1ncc(-c2cc3c4c(c2)OCc2cc(-c5cnc([C@@H]6CCCN6C(=O)[C@H](NC(=O)OC)c6ccccc6)[nH]5)cc(c2-4)OC3)[nH]1)C(C)C [Example 25c],1 to 44 nM,0.001 to 0.99 nM,–,–,–,0.001 to 0.999 nM,–,0.001 to 0.999 nM,–,–,–,0.001 to 0.999 nM,0.031 nM,0.001 to 0.99 nM,0.001 to 0.999 nM
COC[C@H]1C[C@@H](c2nc3ccc4cc5c(cc4c3[nH]2)OCc2cc(-c3cnc([C@@H]4C[C@H](C)CN4C(=O)[C@@H](NC(=O)OC)C(C)C)[nH]3)ccc2-5)N(C(=O)[C@H](NC(=O)OC)c2ccccc2)C1 [Example 555],0.001 to 0.999 nM,0.001 to 0.99 nM,0.001 to 0.999 nM,0.021 nM,0.001 to 0.99 nM,0.001 to 0.999 nM,0.001 to 0.999 nM,0.001 to 0.999 nM,–,–,–,–,–,–,–
COC(=O)N[C@H](C(=O)N1CCC[C@H]1c1nc2ccc3cc4c(cc3c2[nH]1)OCc1cc(-c2cnc([C@@H]3CCCN3C(=O)[C@H](NC(=O)C3CC3)c3ccccc3)[nH]2)ccc1-4)C(C)C [Example 498],0.001 to 0.999 nM,0.001 to 0.99 nM,0.001 to 0.999 nM,0.016 nM,0.001 to 0.99 nM,0.001 to 0.999 nM,0.001 to 0.999 nM,0.001 to 0.999 nM,–,–,–,–,–,–,–
COC[C@H]1C[C@@H](c2nc3ccc4cc(-c5ccc6c(ccc7nc([C@@H]8C[C@H](C)CN8C(=O)[C@@H](NC(=O)OC)C(C)C)[nH]c76)c5)ccc4c3[nH]2)N(C(=O)[C@@H](NC(=O)OC)C(C)C)C1 [Example 568],0.001 to 0.999 nM,0.001 to 0.99 nM,0.001 to 0.999 nM,0.021 nM,0.001 to 0.99 nM,0.001 to 0.999 nM,0.001 to 0.999 nM,0.001 to 0.999 nM,–,–,–,–,–,–,–
COC[C@H]1C[C@@H](c2nc3ccc4cc(-c5ccc6c(ccc7nc([C@@H]8CCCN8C(=O)[C@H](NC(=O)OC)c8ccccc8)[nH]c76)c5)ccc4c3[nH]2)N(C(=O)[C@@H](NC(=O)OC)C(C)C)C1 [Example 454],0.001 to 0.999 nM,0.001 to 0.99 nM,–,0.028 nM,–,0.001 to 0.999 nM,–,0.001 to 0.999 nM,0.001 to 0.999 nM,0.001 to 0.99 nM,0.001 to 0.999 nM,–,–,–,–
COC[C@H]1C[C@@H](c2nc3ccc4cc(-c5ccc6c(ccc7nc([C@@H]8C[C@H](COC)CN8C(=O)[C@@H](NC(=O)OC)C(C)C)[nH]c76)c5)ccc4c3[nH]2)N(C(=O)[C@@H](NC(=O)OC)C(C)C)C1 [Example 436],0.001 to 0.999 nM,0.001 to 0.99 nM,–,0.051 nM,–,0.001 to 0.999 nM,–,0.001 to 0.999 nM,0.001 to 0.999 nM,0.001 to 0.99 nM,0.001 to 0.999 nM,–,–,–,–
COC[C@H]1C[C@@H](c2ncc(-c3ccc(-c4ccc5c(ccc6nc([C@@H]7CCCN7C(=O)[C@@H](NC(=O)OC)C(C)C)[nH]c65)c4)cc3)[nH]2)N(C(=O)[C@H](NC(=O)OC)c2ccccc2)C1 [Example 446],0.001 to 0.999 nM,0.001 to 0.99 nM,–,0.03 nM,–,0.001 to 0.999 nM,–,0.001 to 0.999 nM,0.001 to 0.999 nM,0.001 to 0.99 nM,0.001 to 0.999 nM,–,–,–,–
COC(=O)N[C@@H](C(=O)N1CCC[C@H]1c1ncc(-c2cc3c4c(c2)OCc2cc(-c5cnc([C@@H]6CCCN6C(=O)[C@H](NC(=O)OC)c6ccccc6)[nH]5)cc(c2-4)OC3)[nH]1)c1ccccc1 [Example 25d],0.001 to 0.999 nM,0.001 to 0.99 nM,–,–,–,0.001 to 0.999 nM,–,0.001 to 0.999 nM,–,–,–,0.001 to 0.999 nM,0.048 nM,0.001 to 0.99 nM,0.001 to 0.999 nM
